What was measured:
[1] = biological target: T1, acetylcholinesterase (AChE) (Electrophorus electricus, UniProt O42275); test: biochemical; conditions: ITC, 36.6 °C, single binding site mode, n = 9, ± SD; read-out: KD (dissociation constant)
[2] = biological target: T1, acetylcholinesterase (AChE); test: biochemical; conditions: ITC, n = 9, ± SD

T1 sequence (O42275 24-633): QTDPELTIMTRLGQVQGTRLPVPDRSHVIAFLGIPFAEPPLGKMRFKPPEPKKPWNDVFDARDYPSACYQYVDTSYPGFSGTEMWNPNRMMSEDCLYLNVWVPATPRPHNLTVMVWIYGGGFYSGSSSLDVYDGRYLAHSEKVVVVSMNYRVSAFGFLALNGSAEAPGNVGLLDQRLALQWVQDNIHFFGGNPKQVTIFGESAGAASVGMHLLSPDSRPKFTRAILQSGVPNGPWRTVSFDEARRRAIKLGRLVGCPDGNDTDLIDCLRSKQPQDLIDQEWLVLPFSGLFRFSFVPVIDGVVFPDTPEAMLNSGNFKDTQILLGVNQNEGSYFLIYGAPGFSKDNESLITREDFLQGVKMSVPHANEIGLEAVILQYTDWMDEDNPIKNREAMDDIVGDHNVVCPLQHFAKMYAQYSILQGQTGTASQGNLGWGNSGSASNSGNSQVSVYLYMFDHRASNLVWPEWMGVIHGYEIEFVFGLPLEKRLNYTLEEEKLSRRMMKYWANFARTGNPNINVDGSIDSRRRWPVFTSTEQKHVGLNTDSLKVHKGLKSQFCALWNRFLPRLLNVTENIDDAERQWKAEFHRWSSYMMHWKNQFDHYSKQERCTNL

## C=C1C(=O)O[C@@H]2[C@H]3C(CO)=CC(=O)C3=C(C)C[C@H](OC(=O)Cc3ccc(O)cc3)[C@@H]12 [Lactucopicrin, lactucopicrin]
[1]
  Kd: 169000 ± 120 nM
[2]; dissociation constant of the enzyme–inhibitor complex, read-out: KI (inhibition constant)
  Ki: 1320 ± 110 nM
[2]; inhibitor concentration causing 50% decrease in enzyme activity (converted to lactucine for extracts)
  IC50: 1740 ± 110 nM
